Assays:
[1] = Body weight and side effects of treated mice; format: in vivo; details: applicant's previous studies
Procedure: (§1) Human tumor xenografts in athymic nude mice. […] The animal protocol was approved by the Howard University Animal Care and Use Committee. Four-week-old female athymic nude mice (Nu/Nu) were obtained from Harlan Sprague Dawley (Indianapolis, IN). All mice were provided the Harlan Teklad #2018 Global 18% protein rodent diet and water ad libitum. Mice were housed in temperature-controlled rooms (74±2° F.) with a 12-hour alternating light-dark cycle. MDA cells (3×10^6/50 μL/spot) were subcutaneously injected into the both sides of lower back of mice using a 27-gauge needle. On day 10 after cell implantation, the mice with tumors (˜5 mm in diameter) were randomly divided into Sal-B treated, doxorubicin treated, and untreated groups (five mice per group), and were administrated Sal-B (80 mg/kg, three times per week), doxorubicin (4 mg/kg, every four weeks) and 0.9% saline (50 μl, three times per week), respectively, by intraperitoneal injection for a total of 37 days. […] All mice were sacrificed on day 37.

[2] = test system: MDA-MB-231 cells; assay: Colony formation assay; format: cell-based, human; details: colonies grown 10 days
Procedure: Colony formation assay. The inhibitory effect of Sal-B was further confirmed by colony formation assay. The colony formation assay was performed as described previously (Hao Y, et al., “Enforced expression of miR-101 inhibits prostate cancer cell growth by modulating the COX-2 pathway in vivo,” Cancer Prev Res (Phila). 2011; 4: 1073-1083). Briefly, MDA cells were seeded at a density of 300 cells per well in 6-well plates, cultured overnight, and then treated with Sal-B at different concentrations (1, 10, 20, 50, and 100 μM) for 24 hours. Following treatment, the old medium containing Sal-B was replaced with fresh drug-free media and the cells were allowed to grow for 10 days to permit colony formation from viable clonogenic cells. Colonies were stained with 0.1% trypan blue in 50% ethanol and were counted manually under microscopy with a grid printed on a transparent plastic sheet to keep track of colonies counted. The colonies containing more than 50 cells were considered to represent a viable clonogenic cell. The experiment was completed in triplicate for each treatment.

[3] = test system: MDA tumor xenografts; assay: Human tumor xenografts in athymic nude mice, tumor weight; format: in vivo; details: Sal-B 80 mg/kg three times per week, intraperitoneal; day 37; mean±SD; untreated control 0.81±0.12 g
Procedure: as §1

[4] = test system: proliferating cell nuclear antigen (PCNA); assay: Immunohistochemical staining of PCNA in MDA tumor xenografts; format: in vivo, athymic nude mice; details: Sal-B 80 mg/kg three times per week; versus untreated; P<0.05
Procedure: Human tumor xenografts in athymic nude mice. […] The animal protocol was approved by the Howard University Animal Care and Use Committee. Four-week-old female athymic nude mice (Nu/Nu) were obtained from Harlan Sprague Dawley (Indianapolis, IN). All mice were provided the Harlan Teklad #2018 Global 18% protein rodent diet and water ad libitum. Mice were housed in temperature-controlled rooms (74±2° F.) with a 12-hour alternating light-dark cycle. MDA cells (3×10^6/50 μL/spot) were subcutaneously injected into the both sides of lower back of mice using a 27-gauge needle. […]
Immunohistochemical staining was performed as described previously (Hao Y, et al., “Enforced expression of miR-101 inhibits prostate cancer cell growth by modulating the COX-2 pathway in vivo,” Cancer Prev Res (Phila), 2011; 4: 1073-1083). […] For the quantification, ten high-magnification (40×) fields were randomly selected from each slide of tumors and the positive cells were counted. The protein expression was expressed as the average number of positive cells per high magnification field.

SMILES: O=C(/C=C/c1ccc(O)c2c1[C@H](C(=O)O[C@H](Cc1ccc(O)c(O)c1)C(=O)O)[C@@H](c1ccc(O)c(O)c1)O2)O[C@H](Cc1ccc(O)c(O)c1)C(=O)O [Sal-B, Salvianolic acid B]
- side effects ([1]; Sal-B 80 mg/kg three times per week): no obvious side effects
- side effects at higher dosage ([1]; Sal-B dosage higher than 80 mg/kg three times per week): weight loss in some mice
- colony formation capability relative to control cells ([2]; Sal-B 1 μM for 24 hours): approximately 69%
- colony formation capability ([2]; Sal-B 100 μM for 24 hours): complete inhibition
- average tumor weight [3]: 0.26 ± 0.06 g
- PCNA levels in tumor xenografts [4]: higher in untreated MDA tumor xenografts
